Values after ≈ are worked out from the molar mass of the structure shown. Where no end group is shown, it is not given here.
Columns and labels:
[1] = ppGpp binding affinity by ZIC-HILIC HPLC; settings: ppGpp 1000 μg/mL + peptide 400 μg/mL, 10 min, centrifuged, HPLC UV 260 nm; mean of triplicate; ppGpp control peak area 34904
Procedure: The temperature of the column is kept at 25 ℃. The ppGpp (TriLink BioTechnologies, USA) which diluted with mobile phase to a concentration of 1000 μg/mL, was used as a positive control. Then the ppGpp (1000 μg/mL) was incubated with peptides (400 μg/mL) for 10 min and centrifuged at 12000 rpm for 10 min. The ppGpp concentration of the samples was calculated by comparing the peak areas of the ppGpp standard.

[2] = Temperature stability (MIC read-out); assay type: physicochemical; settings: MIC against MRSA ATCC43300
Procedure: (§1) The untreated peptides were used as control. […] All assays were performed in triplicate.

[3] = assay type: physicochemical; settings: for MIC at pH 2–10, folds of the normal condition: 3 h incubation in buffers pH 2.0–10.0, relative to MH medium
Procedure: as §1

[4] = test system: trypsin; settings: trypsin 250 U/mg, pH 8.0, 10:1 w/w, 4 h, 37 °C; MIC against MRSA ATCC43300
Procedure: (§2) The pH stability of peptides was determined after 3 h incubation in 100 mM glycine-HCl buffer (pH 2.0), sodium acetate buffer (pH 4.0), sodium phosphate buffer (pH 6.0), Tris-HCl buffer (pH 8.0), or glycine-NaOH buffer (pH 10.0). Additionally, peptides were incubated in pepsin (3000 U/mg, pH 2.0) and trypsin (250 U/mg, pH 8.0) (10:1, w/w) solutions for 4 h at 37 °C, respectively. The untreated peptides were used as control. The antibacterial activity of treated peptides against MRSA ATCC43300 was determined by MIC determine assay (Yang et al. [2017]). All assays were performed in triplicate.

[5] = test system: genomic DNA from MRSA ATCC43300; test: Gel retardation assay; assay type: binding, Staphylococcus aureus; settings: 10 min, room temperature, 1% agarose gel
Procedure: To examine the interaction of peptides and MRSA genomic DNA, the gel migration experiment was performed. Genomic DNA was obtained by bacterial genome extraction kit. Different concentrations (0.625 to 20 μg/mL) of peptides and DNA were mixed and incubated for 10 min at room temperature. The migration of genomic DNA was analyzed by electrophoresis on a 1% agarose gel.

[6] = test system: MRSA ATCC43300 biofilm; test: Inhibition of biofilm formation, crystal violet; assay type: cell-based, Staphylococcus aureus
Procedure: To evaluate the effect of peptides on the biofilm information, mid-logarithmic phase MRSA ATCC43300 (1×10^8 CFU/mL) was grown in tryptic soy broth (TSB) medium on 96-well plates at 37 °C […] in the presence (2–64 μg/mL) or absence of peptides (de Breij et al. [2018]; de Breij et al. [2016]). Subsequently, the planktonic bacteria were removed and biofilms were stained for 30 min with 0.1% crystal violet. After rinsing with PBS twice, the dye binding to the adherent bacterial cells was resolubilized in 95% ethanol (200 μL/well). Finally, absorbance was measured at 570 nm with a microplate reader. Fresh TSB medium was used as negative control.

[7] = ref de la Fuente-Nunez et al. [2014]; cited from earlier work
Description: Antimicrobial peptides (AMPs) are kind of bioactive agents with multiple modes of action and appear as one of the most promising antimicrobial drug candidates (Hancock and Sahl [2006]). […] The antimicrobial activity of AMPs was mainly based on their positive charge and hydrophobic residues, which gave them the properties of bacterial cell membrane destruction (Mahlapuu et al. [2016]). Among them, a small synth ...

[8] = test system: MRSA ATCC43300; test: microbe, parasite or virus in culture
Procedure: (§3) The MIC values of peptides against test stains were determined by the microtiter broth dilution method. The bacteria were grown to mid-logarithmic phase and diluted to 1 × 10^5 CFU/mL. Two-fold serial dilutions of peptides were prepared with a gradient concentration of 1280, 640, 320, 160, 80, 40, 20, 10, 5, 2.5, 1.25, and 0.625 μg/mL. A total of 10 μL each serial concentration gradient peptide solutions and 90 μL bacterial suspension were added into 96-well plates. Then the plate was cultured at 37 ℃ for 16–24 h. Vancomycin was tested as control. All assays were performed in triplicate. The MIC refers to the lowest peptide concentration at which there is no visible growth of bacteria (Wiegand et al. [2008]).

[9] = test system: MSSA ATCC25923; test: microbe, parasite or virus in culture
Procedure: as §3

[10] = test system: MSSA ATCC6538; test: microbe, parasite or virus in culture
Procedure: as §3

[11] = test system: MRSA ATCC43300; test: Time-kill curves; assay type: cell-based, Staphylococcus aureus; settings: 2× MIC
Procedure: The time-kill curves against MRSA ATCC43300 were assayed to evaluate the pharmacodynamics of peptides. The mid-log phase bacteria were diluted to 1×10^5 CFU/mL with fresh medium. […] Finally, the mixtures were cultured at 37 °C and 250 rpm. Samples (150 μL) were taken from each flask at 0, 0.5, 1, 2, 4, 6, 8, 10, 12 and 24 h of incubation, and antimicrobial efficiency was measured by plate colony count (Yang et al. [2019]). Treatment with peptide solvent (PBS) and vancomycin at 2× MIC were used as the negative and positive control. All tests were run in triplicate.

[12] = test system: pepsin; settings: pepsin 3000 U/mg, pH 2.0, 10:1 w/w, 4 h, 37 °C; MIC against MRSA ATCC43300
Procedure: as §2

[13] = test system: MRSA ATCC43300; test: SEM/TEM observation of treated bacteria; assay type: cell-based, Staphylococcus aureus; settings: 4× MIC, 2 h, 37 °C
Procedure: The bacteria were fixed with 2.5% glutaraldehyde at 4 °C overnight. For SEM, the bacterial were then dehydrated with a series of graded ethanol solutions (20%, 50%, 70%, 85%, 95% and 100%) and dried by CO2. Gold-palladium was sputtered on samples and observed on a S4800 SEM. For TEM, bacterial were post-fixed with 1% OsO4 for 1 h and then dehydrated for 7 min each time with a graded acetone series (50%, 70%, 85%, 95% and 100%). The samples were immersed in epoxy resin and embedded in capsules containing embedding medium, polymerized at 45 °C for 3 h and at 65 °C for 24 h, respectively. Ultramicrotome was used to acquire thin sections, followed by staining with 1% uranyl acetate. Images were visualized by a Hitachi H-7650 TEM (Yang et al. [2019]).

[14] = test system: MRSA ATCC43300 biofilm; test: Biofilms observed by CLSM and SEM; assay type: cell-based, Staphylococcus aureus; settings: 64 μg/mL, 24 h, SYTO9/PI
Procedure: In order to further explore whether the formation of MRSA ATCC43300 biofilms can be inhibited by peptides, the mid-log phase bacteria were diluted to 1 × 10^8 CFU/mL with TSB medium and seeded into 24-well plates with a glass microscope slide or silicon slice in each well. A concentration of 64 μg/mL peptides were added into plates and incubated for 24 h. Planktonic bacteria were removed by washing with PBS gently. Biofilms on glass microscope slide were stained with SYTO9 and PI according to the instruction (LIVE/DEAD BacLight Bacterial Viability Kit). After incubation for 15 min, the slides were washed with PBS and the biofilms were visualized by SP8 CLSM. Biofilm on silicon slice could be observed by SEM after immobilization, dehydration, drying and coating (Yang et al. [2019]).

[15] = test system: MRSA ATCC43300; test: qRT-PCR of ppGpp metabolism and biofilm formation related genes; assay type: cell-based, Staphylococcus aureus; settings: 4× MIC, 2 h, 16s rRNA reference
Procedure: The ppGpp metabolism and biofilm formation related genes RSH, relP, relQ, rsbU, sigB, spA, codY, agrA and icaD were chosen in this study. Primer sequences were designed and listed in Additional file 1: Table S1. The 16s rRNA was used as a housekeeping one. […] After washing twice with PBS, the total RNA was isolated. Then cDNA was obtained followed by removing genomic DNA. Finally, real-time reverse transcription-polymerase chain reaction (qRT-PCR) was conducted as previously described. The relative expression ratios were calculated as follows: n-fold transcription = 2^−△△Ct, ∆∆Ct = ∆Ct (drug-treated)[…]∆Ct (untreated), where ∆Ct represents the difference between the cycle threshold (Ct) of the gene studied and the Ct of housekeeping 16s rRNA gene (internal control). Student’s t test was used for analyzing those PCR results (Lee et al. [2013]).

## VRLIVAVRIWRR-NH2 [IDR-1018, reference compound]
[1]
  mean ppGpp peak area after incubation with peptide: 19723
[2]; 100 °C for 1 h
  retained antibacterial activity: 50%
[3]
  MIC at pH 2–10, folds of the normal condition: 1-4 times
[4]
  MIC after trypsin, times of the untreated peptide: 16-32 times
[5]
  concentration inhibiting migration of genomic DNA: 1.25 µg/mL
[6]; 2–64 μg/mL
  impact on biofilm formation: nearly no impact
[7]
  MBIC100 (anti-biofilm): 2 to 10 µg/mL
  MIC (antibacterial): 8 to 256 µg/mL

## CN[C@H](CC(C)C)C(=O)N[C@H]1C(=O)N[C@@H](CC(N)=O)C(=O)N[C@H]2C(=O)N[C@H]3C(=O)N[C@H](C(=O)N[C@H](C(=O)O)c4cc(O)cc(O)c4-c4cc3ccc4O)[C@H](O)c3ccc(c(Cl)c3)Oc3cc2cc(c3O[C@@H]2O[C@H](CO)[C@@H](O)[C@H](O)[C@H]2O[C@H]2C[C@](C)(N)[C@H](O)[C@H](C)O2)Oc2ccc(cc2Cl)[C@H]1O [vancomycin, reference compound]
[8]; Staphylococcus aureus
  MIC: 1 µg/mL (≈ 0.69 µM)
[9]; Staphylococcus aureus
  MIC: 1 µg/mL (≈ 0.69 µM)
[10]; Staphylococcus aureus
  MIC: 1 µg/mL (≈ 0.69 µM)
[11]
  incubation time after which bacteria rejuvenated: 10 h

## VRLRWWRRRWRR-NH2 [1018M]
[1]
  mean ppGpp peak area after incubation with peptide: 14255
[8]; ATCC43300
  MIC: 2 µg/mL
[9]; ATCC25923
  MIC: 2 µg/mL
[10]; ATCC6538
  MIC: 1 µg/mL
[2]; 20, 40, 60, 80 or 100 °C for 1 h, triplicate
  antibacterial activity after heat exposure: not changed
[3]; 3 h, pH 2
  MIC at pH 2–10: 2–4 μg/mL
[3]
  MIC at pH 2–10, folds of the normal condition: 1–2 folds
[12]
  activity after treatment with pepsase: 100%
[4]
  MIC after trypsin, times of the untreated peptide: 16-32 times
[13]
  ghost bacteria (TEM): About 10%
[5]
  concentration inhibiting migration of genomic DNA: 5 µg/mL
[6]; 64 μg/mL, 24 h, A570
  decrease of percentage of biofilm: 78.9%
[14]
  biofilm formation observed by CLSM: completely inhibited
[15]
  transcription of AgrA gene, times upregulated: 2.595 time

— PMC7997937 (AMB Express, 2021)
